From paper PMC11341970 (RSC Advances, 2024)
Like-named read-outs stand apart in the source and are kept apart here.

Legend:
EeAChE = EeAChE (Electrophorus electricus, UniProt O42275); experiment: AChE inhibition assay; format: biochemical
hBACE 1 = hBACE 1 (Homo sapiens, UniProt P56817); experiment: BACE 1 inhibition assay; format: biochemical
[1] = read-out: eeAChE IC50 (μM) ± SD, Ellman assay, mean ± SD of three experiments
[2] = read-out: hBACE 1 IC50 (μM) ± SD, FRET assay, mean ± SD of three experiments

Sequence of hBACE 1 (P56817 46-501): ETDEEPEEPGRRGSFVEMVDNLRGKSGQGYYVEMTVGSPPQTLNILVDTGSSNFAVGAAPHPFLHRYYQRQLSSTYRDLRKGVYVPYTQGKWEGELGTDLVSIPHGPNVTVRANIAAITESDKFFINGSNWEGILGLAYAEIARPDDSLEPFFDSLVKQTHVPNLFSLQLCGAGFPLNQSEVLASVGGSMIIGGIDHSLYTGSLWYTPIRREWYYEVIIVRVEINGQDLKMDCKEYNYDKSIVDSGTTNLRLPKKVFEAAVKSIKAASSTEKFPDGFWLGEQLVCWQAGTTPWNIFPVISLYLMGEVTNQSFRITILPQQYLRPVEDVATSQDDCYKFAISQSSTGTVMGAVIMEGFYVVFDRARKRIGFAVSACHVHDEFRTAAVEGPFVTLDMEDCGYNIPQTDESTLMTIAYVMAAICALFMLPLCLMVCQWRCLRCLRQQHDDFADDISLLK
Sequence of EeAChE (O42275 24-633): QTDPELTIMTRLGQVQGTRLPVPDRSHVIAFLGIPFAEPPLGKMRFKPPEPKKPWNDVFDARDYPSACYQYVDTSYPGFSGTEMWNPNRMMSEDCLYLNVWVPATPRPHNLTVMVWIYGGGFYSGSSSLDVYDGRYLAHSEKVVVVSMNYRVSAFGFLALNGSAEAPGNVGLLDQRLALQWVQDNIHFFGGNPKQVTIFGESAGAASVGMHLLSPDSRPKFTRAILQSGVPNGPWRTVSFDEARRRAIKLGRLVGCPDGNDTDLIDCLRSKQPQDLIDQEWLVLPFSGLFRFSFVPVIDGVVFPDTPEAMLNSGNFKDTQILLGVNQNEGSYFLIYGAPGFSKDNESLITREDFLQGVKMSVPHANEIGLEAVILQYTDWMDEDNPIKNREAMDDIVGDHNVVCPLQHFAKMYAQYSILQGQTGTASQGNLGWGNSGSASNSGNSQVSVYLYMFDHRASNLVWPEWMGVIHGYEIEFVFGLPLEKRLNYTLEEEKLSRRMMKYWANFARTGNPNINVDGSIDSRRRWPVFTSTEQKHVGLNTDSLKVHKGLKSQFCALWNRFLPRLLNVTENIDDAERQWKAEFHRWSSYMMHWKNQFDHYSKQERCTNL

Compound	IC50 (EeAChE; [1])	IC50 (hBACE 1; [2])	IC50 (EeAChE)	IC50 (hBACE 1)	BACE 1 inhibition (%) (hBACE 1; concentration not given)
[H]/N=C(/N)NN=C(/C=C/c1ccccc1)c1cccn1Cc1cc(F)ccc1F [Compound 2d, (Z)-2-((E)-1-(1-(2,5-Difluorobenzyl)-1H-pyrrol-2-yl)-3-phenylallylidene)hydrazine-1-carboximidamide]	153 ± 1.98 µM	107 ± 3.04 µM			
[H]/N=C(/N)NN=C(/C=C/c1ccccc1)c1cccn1Cc1cccc(C#N)c1 [Compound 2o, (Z)-2-((E)-1-(1-(3-Cyanobenzyl)-1H-pyrrol-2-yl)-3-phenylallylidene)hydrazine-1-carboximidamide]			75.4 ± 1.03 µM	147.8 ± 0.28 µM	
[H]/N=C(/N)NN=C(/C=C/c1ccccc1)c1cccn1Cc1ccc(C(C)C)cc1 [Compound 2r, (Z)-2-((E)-1-(1-(4-Isopropylbenzyl)-1H-pyrrol-2-yl)-3-phenylallylidene)hydrazine-1-carboximidamide]			50.4 ± 0.91 µM	191.3 ± 1.41 µM	
[H]/N=C(/N)NN=C(/C=C/c1ccccc1)c1cccn1Cc1ccc(F)cc1C(F)(F)F [Compound 2h, (Z)-2-((E)-1-(1-(4-Fluoro-2-(trifluoromethyl)benzyl)-1H-pyrrol-2-yl)-3-phenylallylidene)hydrazine-1-carboximidamide]			57.1 ± 3.91 µM	74.2 ± 1.8 µM	
[H]/N=C(/N)NN=C(/C=C/c1cc(OC)cc(OC)c1)c1cccn1Cc1ccc(C(C)(C)C)cc1 [Compound 3j, (Z)-2-((E)-1-(1-(4-(tert-Butyl)benzyl)-1H-pyrrol-2-yl)-3-(3,5-dimethoxyphenyl)allylidene)hydrazine-1-carboximidamide]			69.6 ± 1.51 µM	177 ± 2.83 µM	
[H]/N=C(/N)NN=C(/C=C/c1ccc(F)c(F)c1)c1cccn1Cc1ccc(C(C)(C)C)cc1 [Compound 3f, (Z)-2-((E)-1-(1-(4-(tert-Butyl)benzyl)-1H-pyrrol-2-yl)-3-(3,4-difluorophenyl)allylidene)hydrazine-1-carboximidamide]	126.1 ± 0.71 µM	135.9 ± 0.71 µM			
[H]/N=C(/N)NN=C(/C=C/c1ccc(C(C)(C)C)cc1)c1cccn1Cc1ccc(Br)cc1 [Compound 3i, (Z)-2-((E)-1-(1-(4-Bromobenzyl)-1H-pyrrol-2-yl)-3-(4-(tert-butyl)phenyl)allylidene)hydrazine-1-carboximidamide]			83.94 ± 0.74 µM	193 ± 2.12 µM	
[H]/N=C(/N)NN=C(/C=C/c1ccccc1)c1cccn1Cc1ccccc1F [Compound 2g, (Z)-2-((E)-1-(1-(2-Fluorobenzyl)-1H-pyrrol-2-yl)-3-phenylallylidene)hydrazine-1-carboximidamide]			163 ± 3.18 µM	100.8 ± 0.57 µM	
[H]/N=C(/N)NN=C(/C=C/c1ccccc1)c1cccn1Cc1cc(OC)cc(OC)c1 [Compound 2a, (Z)-2-((E)-1-(1-(3,5-Dimethoxybenzyl)-1H-pyrrol-2-yl)-3-phenylallylidene)hydrazine-1-carboximidamide]			231.2 ± 2.26 µM	95.8 ± 3.45 µM	
[H]/N=C(/N)NN=C(/C=C/c1ccccc1)c1cccn1Cc1ccc(F)cc1F [Compound 2k, (Z)-2-((E)-1-(1-(2,4-Difluorobenzyl)-1H-pyrrol-2-yl)-3-phenylallylidene)hydrazine-1-carboximidamide]			61.1 ± 1.48 µM	133 ± 1.84 µM	
[H]/N=C(/N)NN=C(/C=C/c1ccccc1)c1cccn1Cc1cc(Cl)ccc1Cl [Compound 2e, (Z)-2-((E)-1-(1-(2,5-Dichlorobenzyl)-1H-pyrrol-2-yl)-3-phenylallylidene)hydrazine-1-carboximidamide]			75.6 ± 3.09 µM	178.2 ± 0.92 µM	
[H]/N=C(/N)NN=C(/C=C/c1ccccn1)c1cccn1Cc1ccccc1 [Compound 1j, (Z)-2-((E)-1-(1-Benzyl-1H-pyrrol-2-yl)-3-(pyridin-2-yl)allylidene)hydrazine-1-carboximidamide]			95.6 ± 2.4 µM	13.7 ± 0.77 µM	43.62%
[H]/N=C(/N)NN=C(/C=C/c1cccc(OC)c1)c1cccn1Cc1ccccc1 [Compound 1i, (Z)-2-((E)-1-(1-Benzyl-1H-pyrrol-2-yl)-3-(3-methoxyphenyl)allylidene)hydrazine-1-carboximidamide]			206.6 ± 0.49 µM	134.1 ± 0.21 µM	
[H]/N=C(/N)NN=C(/C=C/c1ccccc1)c1cccn1Cc1ccc(C)cc1 [Compound 2f, (Z)-2-((E)-1-(1-(4-Methylbenzyl)-1H-pyrrol-2-yl)-3-phenylallylidene)hydrazine-1-carboximidamide]			176.7 ± 0.64 µM	85.7 ± 2.43 µM	
[H]/N=C(/N)NN=C(/C=C/c1ccccc1F)c1cccn1Cc1ccccc1 [Compound 1e, (Z)-2-((E)-1-(1-Benzyl-1H-pyrrol-2-yl)-3-(2-fluorophenyl)allylidene)hydrazine-1-carboximidamide]			172.3 ± 1.56 µM	174.5 ± 1.48 µM	
[H]/N=C(/N)NN=C(/C=C/c1ccccc1)c1cccn1Cc1cc(F)ccc1C [Compound 2p, (Z)-2-((E)-1-(1-(5-Fluoro-2-methylbenzyl)-1H-pyrrol-2-yl)-3-phenylallylidene)hydrazine-1-carboximidamide]			80.13 ± 0.16 µM	145 ± 0.28 µM	
